This is an account of results in EPA's ToxValDB 9.5.

“And” between values parts separate entries of the source, which are not always exact repeats. Equal entries are not always repeated. Structures can show the parent of a compound that is named as a salt. Where only a bound is given, the exact number is not on record here.

For data set [1], the system named is Gallus sp. Conditions: subchronic; duration: 90 days; oral; F; neurotoxicity.
In data set [2] the test system is Canidae. Conditions: oral, diet, M/F, Dog Other.
Data set [3] has as its system Canidae. To be noted: chronic; duration: 2 years; oral; diet; Dog Other; Small intestine: Increased weight + Stomach: Increased weight.
In data set [4] the test system is Mus musculus. To be noted: uterotrophic; duration: 3 days; injection; subcutaneous; Active.
The test system of data set [5] is Rattus norvegicus. Conditions: for LEL: uterotrophic, Active.
The subject of data set [6] is Homo sapiens. To be noted: clinical, oral.
Data set [7] has as its system Canidae. To be noted: subchronic, duration: 90 days, oral, M/F, Beagle, neurological.
Data set [8] has as its system Rattus norvegicus. Conditions: oral; for LOEL / NOEL: duration: 2 years, M/F, Crl, Reduced bodyweight gain.
Data set [9] deals with Oryctolagus sp. To be noted: acute; dermal.
Data set [10] concerns Rattus norvegicus. To be noted: acute.
For data set [11], the system named is Rattus norvegicus. The data set can be described thus: LC100; higher = less toxic. To be noted: acute; inhalation.
The subject of data set [12] is Homo sapiens. Conditions: clinical; duration: 1 days; inhalation; nose only; unknown; respiratory.
The test system of data set [13] is Coturnix japonica. To be noted: repeat dose other; oral.
Data set [14] deals with Rattus norvegicus. Conditions: repeat dose other; oral.
Data set [15] relates to Neovison sp. Conditions: repeat dose other; oral; Mink.
The subject of data set [16] is Rattus norvegicus. Conditions: subchronic, M/F, autoimmune effects (autoimmune glomerulonephritis).
Data set [17] deals with Rattus norvegicus. Conditions: short-term; duration: 28 days; oral; gavage; unknown; Wistar; renal.
For data set [18], the system named is Cavia porcellus. Conditions: acute, Guinea Pig.
Data set [19] relates to Mus musculus. Conditions: subchronic; oral; M/F; kidney effects (renal tubular pathology, reduced kidney weight).
The subject of data set [20] is Mus musculus. Conditions: subchronic; duration: 13 weeks; oral; gavage; M/F; CD1; Urinary.
For data set [21], the system named is Homo sapiens. Conditions: clinical; oral; M; Restoration normal sexual desire, erection, ejaculation, and general well-being.
Data set [22] concerns Mus musculus. To be noted: acute; oral.
Data set [23] has as its system Canidae. Conditions: oral, capsule, M/F, Histopathological changes in the spleen and bone marrow indicative of anaemia.
Data set [24] relates to Homo sapiens. Conditions: clinical; oral; Blood: Increased prothrombin time.
Where [25] appears, read: chronic, duration: 2 years, increased absolute and relative weight of stomach and small intestine.
Where [26] appears, read: Hershberger, duration: 10 days, oral, gavage, Sprague-Dawley, active + Androgenic + Negative + androgenic.
The mark [27] stands for this setting: duration: 3 days, injection, subcutaneous.
[28] abbreviates: subchronic, duration: 90 days, inhibition of brain cholinesterase.
Where [29] appears, read: M, plasma cholinesterase inhibition.

In data set [1], `CCOP(=S)(Oc1ccc([N+](=O)[O-])cc1)c1ccccc1` (configuration not stated) [EPN] returned an LEL of 0.1 mg/kg-day and an NOEL of 0.01 mg/kg-day.

As for `O=C(O)[C@@H]1[C@H](C(=O)O)[C@H]2CC[C@@H]1O2` [Endothal], in data set [2] (setting [25]), the LEL turned out to be 6 mg/kg-day and the NOEL is 2 mg/kg-day. For the same compound, the NOEL in data set [3] turned out to be 2 mg/kg-day.

As to `C[C@]12CC[C@H]3C(=CCc4cc(O)ccc43)[C@@H]1CCC2=O` [Equilin], in data set [4], the “LEL (gamma)” value was 1 and 3. Further, in [5] (setting [26]), the LOEL turned out to be 2 mg/kg-day and the NOEL came out at 0.5 mg/kg-day. In [5] (setting [27]), this compound returned an LEL of 2 mg/kg-day. The LEL in data set [5] (duration: 7 days, injection, subcutaneous) was 0.00025 mg/day.

On to `CCOP(=S)(OCC)SCSP(=S)(OCC)OCC` [Ethion], for which the results for the LEL in data set [2] (setting [28]) and in [6] (setting [29]) were 0.71 mg/kg-day and 0.075 mg/kg-day, respectively. The results for the NOEL in data set [2] (setting [28]) and in data set [6] (setting [29]) were 0.06 mg/kg-day and 0.05 mg/kg-day, respectively. The no-observed-adverse-effect level (NOAEL) in data set [7] was 0.06 mg/kg-day; in [7] (diet), 0.06 mg/kg-day; in data set [8] (developmental, gavage, Embryotoxic effects), 0.2 mg/kg-day.

In the case of `CCOS(=O)(=O)OCC` [Ethyl sulfate (Et2SO4)], the LD50 amounted to 706 mg/kg in data set [9]; 350 mg/kg in [10] (injection, subcutaneous); 880 mg/kg in data set [10] (oral). The LC50 in data set [10] (inhalation) is ≥ 1580 mg/m3 and ≤ 3150 mg/m3. In addition, in data set [11], the LC100 came out at 3150 mg/m3.

With `FF` [Fluorine], in [12], the NOAEL was 15.5 mg/m3.

In [13], `[Mn+2].[Mn+3].[Mn+3].[O-2].[O-2].[O-2].[O-2]` [Manganese oxide (Mn3O4)] showed an NOAEL of 997 mg/kg-day. In data set [14], this compound gave an LOAEL of 284 mg/kg-day and an NOAEL of 88 mg/kg-day.

Take `[Cl][Hg][Cl]` [Mercuric chloride]: the LOAEL was 0.9 mg/kg-day in data set [13]; 0.226 mg/kg-day in [16] (injection, subcutaneous); 0.317 mg/kg-day and 0.633 mg/kg-day in [16] (oral, diet); 0.015 mg/kg-day in [17]. Further, the no observed adverse effect level (NOAEL) in [13] stood at 0.45 mg/kg-day; in data set [15] it was 1 mg/kg-day. The LEL in data set [5] (duration: 3 days, injection, intraperitoneal) stood at 1 mg/kg-day.

On to `CCCCCCCC/C=C\CCCCCCCC(=O)O` [Oleic acid], for which the LD50 in data set [18] (dermal) was more than 3000 mg/kg.

Regarding `c1cc2ccc3cccc4ccc(c1)c2c34` [Pyrene], in data set [19], the LOAEL was determined as 125 mg/kg-day and the no-observed-adverse-effect level (NOAEL) was found to be 75 mg/kg-day. Besides, the NOAEL in data set [20] came out at 75 mg/kg-day.

On to `C[C@]12CC[C@H]3[C@@H](CCC4=CC(=O)CC[C@@]43C)[C@@H]1CC[C@@H]2O` [Testosterone], for which the NOEL in data set [5] (Hershberger, duration: 7 days, injection, subcutaneous, Sprague-Dawley, active + Androgenic + androgenic) was 0.1 mg/kg-day; in [21] it was 1.7 mg/kg-day. Moreover, the LEL in data set [5] (setting [27]) was determined as 0.2 mg/day.

On to `O=C1OC(=O)C2CC=CCC12` (configuration not stated) [Tetrahydrophthalic anhydride], for which the 50% lethal dose (LD50) is 3500 mg/kg in data set [18] (oral) and 3300 mg/kg in data set [22].

Regarding `c1ccc2[nH]c(-c3cscn3)nc2c1` [Thiabendazole], the NOEL amounted to 10 mg/kg-day in data set [23] (chronic, duration: 1 years, Beagle); 10 mg/kg-day in data set [23] (chronic, duration: 1 years, Dog Other); 10 mg/kg-day in data set [23] (duration: 1 year, Beagle); 10 mg/kg-day in data set [23] (duration: 1 year, Dog Other); 10 mg/kg-day in data set [8] (chronic, diet); 10 mg/kg-day in data set [8] (feed). The LOEL in data set [8] (chronic, diet) was determined as 40 mg/kg-day; in data set [8] (feed) it was 40 mg/kg-day.

As to `CC(=O)CC(c1ccccc1)c1c(O)c2ccccc2oc1=O` (configuration not stated) [Warfarin], the lowest observed adverse effect level (LOAEL) in [6] (M/F, increased prothrombin time) amounted to 0.029 mg/kg-day; in [24], 2 mg/day.
